Data taken from patent US20080299186A1, “COATINGS FOR APPLYING SUBSTANCES ONTO SUBSTRATE CARRIER” (Schering-Plough Healthcare Products, Inc., priority 2007, published 2008).
Structures can show the parent of a compound that is named as a salt.

Experiment: Phenylephrine HCl stability study: chemical compatibility with film forming polymers and plasticizers, HPLC degradation products
Type: physicochemical
Procedure: Methods: Chemical compatibility of Phenylephrine HCl with various film forming polymers or polymer blends and plasticizers (Table 2) was conducted. […] Two additional formulations (C and F) were used as controls. Sample C contained Phenylephrine HCl dissolved in water without any additional cellulosic or non-cellulosic polymers. Sample F comprised phenylephrine HCl in the absence of water. Both controls were subjected to the same drying conditions as the other example films prior to analysis.
Aliquots from the bulk coating dispersion equivalent to approximately 10 unit doses of the active were poured into flat, 4-6″ plastic weight boats and allowed to dry overnight for approximately 15-16 hours at 40C under vacuum. The amount per film equivalent to 10 unit doses was chosen for achieving reproducible and reliable analytical results for the Phenylephrine HCl degradants. […] These dried film samples were then stored at 50C in closed amber jars for 14 days. Each film was then analyzed by HPLC for the presence of degradation products. Separation of Phenylephrine HCl degradation products was accomplished on an HPLC using a Prontosil EPS C18, 100×4.6 mm (3 μparticle size) column manufactured by Bischoff Chromatography and using a gradient test method. Detection was by UV at 215 nm. The column was thermostated at 25° C. and an injection volume of 10 μL of sample solution was used. […]

Row | residual water after drying (after drying of the film sample) | total PE degradation, result in words (compared with controls) (stored at 50C in closed amber jars for 14 days) | Compound
1 | 10-15% | – | CNC[C@H](O)c1cccc(O)c1 [C, Phenylephrine HCl]
2 | – | no appreciable degradation occurred | CNC[C@H](O)c1cccc(O)c1 [F, Phenylephrine HCl]
